Laboratory results from patent US12084521B2, “TLR9 inhibitors to suppress inflammatory response to pathogens” (University Of Maryland, Baltimore, priority 2018, dated 2024).
“Also recorded” adds a separate entry of the source. No end group written: not given here.

Assays:
[1] = test system: TLR1/2 signaling; test: TNFα mRNA in BMDM stimulated with Pam3C; format: cell-based, mouse; conditions: peptide 40 μM; P3C 0.33 μM; 1 h
Procedure: (§1) The cDNA obtained was amplified with gene-specific primers for mouse HPRT, TNFα, IL-10, IL-12-p40, or IL-6 and Fast SYBR Green™ master mix (Applied Biosystemsm) as previously described.
(§2) CPDPs 9R34 and 9R11 were examined for inhibition of TLR1/2, TLR4, and TLR7 signaling. BMDMs were stimulated with Pam3C, E. coli LPS, or R848 and TNFαmRNA was measured 1 hour after stimulation. Mouse BMDM were treated with 40 μM of the indicated peptides for 30 minutes prior to stimulation with ODN 1668 (1 μM), E. coli LPS (0.1 μg/mL), R848 (2.85 μM), or P3C (0.33 μM). R848 and P3C were used to specifically activate TLR7 and TLR2 signaling, respectively. TNFαmRNA expression was measured 1 h after ODN 1668 challenge and normalized to the expression of HPRT. See results in FIG. 8A, FIG. 8B, and FIG. 8C. […] The statistical significance of changes was determined by a one-way ANOVA test; *p<0.01.

[2] = test system: TLR9-induced lethality; test: Survival of D-Gal pretreated mice after ODN 1668; format: in vivo, C57Bl/6J mice; conditions: ODN 1668 lower dose 3.93 nmol/mouse; peptide 200 nmol/mouse i.p.
Procedure: Systemic cytokine levels were measured in plasma samples obtained 1, 3, and 5 hours after intraperitoneal (i.p.) administration of 7.86 nmol (50 μg) of ODN 1668 or 67 nmol of Pam3C per mouse, using ELISA kits from Biolegend™ Inc. CPDP were dissolved in PBS and administered i.p. at the dose of 200 nmol per mouse 1 hour before administration of a TLR agonist. For survival experiments, mice were sensitized to TLR9 agonists by i.p. injection of 20 mg of D-Gal 30 minutes before administration of peptides or PBS. ODN 1668 was used at the doses of 3.93 or 7.86 nmol/mouse (25 or 50 μg/mouse) 1.5 hours after D-Gal. Animal survival was monitored for 50 hours. All agents were administered i.p. in 500 μL volume of PBS. Animals had free access to food and water during the observation period. All animal experiments were conducted in accordance with the national guidelines for the care and use of laboratory animals under a protocol that was approved by the UMB IACUC.
With the exception for LPS, administration of a purified TLR agonist is not lethal to mice. Mice, however, can be sensitized to TLR agonists by pretreatment with D-galactosamine (D-Gal). Survival of C57Bl/6J mice pretreated with D-galactosamine and challenged with different doses of ODN 1668 was tested. Mice were first administered with D-Gal intraperitoneally at the dose of 20 mg/mouse. Thirty minutes later mice were mock-treated with PBS or treated with a CPDP at the dose 200 nmol/mouse. ODN 1668 was administered 1 hour after peptide treatment at the dose of 3.93 or 7.86 nmol/mouse.

[3] = test system: TLR4 signaling; test: LPS-induced TNFα secretion in BMDM (ELISA); format: cell-based, mouse; conditions: peptide 20 or 40 μM; E. coli LPS 0.1 μg/mL; 5 hour BMDM supernatants
Procedure: (§3) Mouse TNFα and IL-12-p40 concentrations were measured in supernatants using ELISA kits from Biolegend™, Inc.
BMDM were treated with 20 or 40 μM of 9R34 for 30 minutes prior to stimulation with E. coli LPS (0.1 μg/mL). TNFαconcentration in supernatants was evaluated by ELISA 5 hours after cell stimulation. See results in FIG. 9. Data represent means±SEM of three independent experiments.

[4] = test system: TLR9 signaling; test: TNFα mRNA in BMDM at varying ODN 1668 concentration, comparison with INH-18; format: cell-based, mouse; conditions: inhibitor 30 min before varying ODN 1668, 1 hour
Procedure: To investigate inhibition of TLR9 signaling by 9R34 further, the following work was conducted. Mouse BMDMs were treated with the effective dose of either INH-18 (an ODN-based, competitive inhibitor of TLR9, commercially available through Invivogen™) or 9R34, 30 minutes prior to stimulation with varying concentration of ODN 1668. TNFα mRNA expression was measured 1 hour after ODN 1668 challenge and normalized to the expression of HPRT.

[5] = test system: TLR7 signaling; test: TNFα mRNA in BMDM stimulated with R848; format: cell-based, mouse; conditions: peptide 40 μM; R848 2.85 μM; 1 h
Procedure: as §1, §2

[6] = Stability and solubility of peptide solutions
[7] = test system: TLR9 signaling; test: ODN 1668-induced cytokine mRNA expression in BMDM (quantitative real time PCR); format: cell-based, mouse
Procedure: as §1
Mouse BMDMs were incubated in the presence of a 10, 20 or 40 μM decoy peptide for 30 minutes prior to stimulation with ODN 1668 (1 μM). […] Data represent the means±SEM of at least three independent experiments. The statistical significance of changes in cytokine mRNA was determined by a one-way ANOVA test; *p<0.001. Peptides 9R3 and 9R34 have overlapping sequences (see Table 1).
To investigate inhibition of TLR9 signaling by 9R34 analogues, the following work was performed. Mouse BMDMs were incubated in the presence of a 10, 20 or 40 μM decoy peptide for 30 minutes prior to stimulation with ODN 1668 (1 μM). Cytokine mRNA expression was measured 1 hour after ODN 1668 challenge and normalized to the expression of HPRT. See also Table 1. Data represent means±SEM of at least three independent experiments.

[8] = test system: TLR9 signaling; test: ODN 1668-induced cytokine secretion in BMDM supernatants (ELISA); format: cell-based, mouse; conditions: 5 hour supernatants, ODN 1668 1 μM
Procedure: as §3
BMDMs were incubated in the presence of a decoy peptide for 30 minutes prior to stimulation with ODN 1668 (1 μM). The statistical significance of changes in cytokine levels was determined by the one-way ANOVA test; *p<0.01.

[9] = test system: myDDosome; conditions: BMDM pretreated with CPDP; MyD88 IP, IRAK4 blot
Procedure: Four million BMDMs per well were plated in 6-well plates and treated with CPDP for 30 minutes prior to stimulation with ODN 1668 for 90 minutes. Cells were lysed in 600 p L of buffer containing 20 mM HEPES (pH 7.4), 150 mM NaCl, 10 mM NaF, 2 mM Na3VO4, 1 mM EDTA, 1 mM EGTA, 0.5% Triton X-100, 0.1 mM DTT, and protease inhibitor cocktail (Roche™). Cell extracts were incubated overnight with 1 μg of anti-mouse MyD88 antibody (AF3109) (R&D Systems™, followed by a 4-hour incubation with 20 μL protein G Sepharose beads (ThermoFisherm Scientific). The beads were then washed 3 times with 500 μL of lysis buffer and boiled in 60 μL of Laemmli sample buffer (Bio-Rad™). Cell extracts were electrophoresed on 10% acrylamide gel by SDS-PAGE and transferred to PVDF membrane (Bio-Rad™). Rabbit anti-MyD88 IgG was purchased from Cell Signaling™. Mouse anti-IRAK4 IgG was obtained from Abcam™. Alkaline phosphatase-conjugated secondary antibodies against mouse and rabbit IgG were purchased from Cell Signaling™. The stabilized substrate for alkaline phosphatase was from Promega™.
TLR stimulation causes formation of myDDosome, a signaling complex composed through interactions of IRAK and MyD88 death domains. To test if peptides inhibit myDDosome formation, MyD88 was immunoprecipitated from lysates of ODN-stimulated BMDM and the precipitates analyzed for IRAK4 presence. BMDM were lysed and lysates immunoprecipitated with anti-MyD88 Ab and immune complexes assessed with anti-IRAK4 Ab 3 hours after cell treatment with ODN 1668.

[10] = BMDM, peptide 10, 20 or 40 μM 30 min before ODN 1668 (1 μM), 1 hour, normalized to HPRT

Sequence: GRWALRLCLEERD (also: antennapedia vector attached) [Peptide 9R34]
- signaling induced by TLR1/2 agonist (TNFα mRNA) [1]: did not inhibit
- protection of D-Gal pretreated mice (survival) [2]: full protection
- LPS-induced TNFα secretion [3]: did not reduce
- TNFα/HPRT mRNA expression ratio with increased concentrations of agonistic ODN [4]: efficient inhibition in a wider range of agonist concentrations
- signaling induced by TLR7 agonist (TNFα mRNA) [5]: did not inhibit
- stability of millimolar stock solutions [6]: unstable
- stability of peptide solutions in the presence of high protein concentrations [6]: also unstable
- TNFα mRNA expression ([7]; BMDM, peptide 10, 20 or 40 μM 30 min before ODN 1668 (1 μM), 1 hour after stimulation, normalized to HPRT): significantly suppressed
- IL-10 mRNA expression [7, 10]: significantly suppressed
- IL-12-p40 mRNA expression [7, 10]: significantly suppressed
- inhibition of TLR9 signaling (ODN 1668-induced cytokine mRNA, overall) ([7]; BMDM, peptide 10, 20 or 40 μM, ODN 1668 1 μM): most potent inhibitor; also recorded: inhibit TLR9 signaling; also recorded: inhibited TLR9 signaling more potently than 9R3
- expression of all tested cytokines at lower peptide concentrations ([7]; peptide 10 or 20 μM): inhibited expression of all tested cytokines
- secretion of IL-12-p40 ([8]; peptide 20 μM): also effective
- production/secretion of TNFα ([8]; peptide 40 μM): decreased the production of TNFα
- secretion of IL-12-p40 ([8]; peptide 40 μM): reduced secretion
- ODN 1668-induced myDDosome formation [9]: prevented ODN 1668-induced myDDosome formation
